Series [1] addresses T1, CypA (Homo sapiens, UniProt P62937).
T1 construct: made in house; host or cells: E. coli BL21(DE3)
Kind of series: biochemical. In kind it is binding. As to conditions: for kon: pH 7.4, read-out: ka1 (association rate constant), two state reaction model; for koff: pH 7.4, read-out: kd1 (dissociation rate constant), two state reaction model. How it is done: The two-state binding model, also called the conformational change model, is based on a 1:1 binding of an analyte to the immobilized ligand followed by a conformational change in the complex. This model should be regarded as indicative, rather than as direct evidence, for a conformational change upon binding. […] From the two-state binding model the association rate (ka1), dissociation rate (kd1), forward rate (ka2) and backward rate (kd2) constants were calculated, and subsequently the magnitude of the dissociation constants (KD) could be calculated ([…] (Table 1).
(§1) SPR measurements were performed at 25°C on a Biacore T100 instrument (Biacore AB, Uppsala, Sweden) equipped with a CM5 research-grade sensor chip. CypA was immobilized in FC 2 and FC 4 to 180 and 918 RU (response units) respectively, using standard amine-coupling chemistry in two flow cells. FC 1 and FC 3 were treated according to FC 2 and FC 4 except for CypA immobilisation and functioned as reference cells. The synthetic Vpr peptides sVpr^1-20, sVpr^21-40, sVpr^25-40, sVpr^30-40, sVpr^32-38 and sVpr^33-37 were dissolved at four concentrations ranging from 50 to 400 μM in the running buffer (HBS-P buffer pH 7.4). […] The samples were injected over the flow cells at a flow rate of 30 μl/min. Data were collected at 2.5 Hz during the 60 s association and 120 s dissociation phase, and were automatically corrected for bulk buffer effects and unspecific binding of Vpr peptides to the chip matrix.
Affinity, association and dissociation rate constants were obtained from sensograms by the Biacore T100 evaluation software version 2.0.1 in accordance with the global curve fit model. Sensorgram data for the four different concentrations were fitted to several binding models including 1:1 (Langmuir) binding model (A+B ↔ AB), two-state reaction (conformational change) model (A+B ↔ AB ↔ AB*) and heterogeneous ligand model (interaction one: A+B1 ↔ AB1; interaction two: A+B2 ↔ AB2). Kinetic constants were calculated for the best fitted model.

Series [2] is described as follows: Solubility of sVpr peptides in aqueous buffer (observation during SPR sample preparation). The note with it: for Solubility in SPR running buffer: HBS-P buffer pH 7.4, dissolved at 25-200 μM instead of 50-400 μM. In kind it is physicochemical. The procedure: as §1
Series [3] relates to HIV. The note with it: specific inhibitors of the prolyl cis/trans isomerase activity of CypA; cited from earlier work. The source says:
The interaction of HIV-1 Vpr with CypA is known to occur in vitro and in vivo [9-11]. […] Nonetheless, spe ...

Series [4] concerns the target T1, CypA. Description: 2D 1H NOESY/ROESY NMR exchange spectroscopy of CypA prolyl cis/trans isomerase activity on sVpr peptides and its inhibition by cyclosporine A. In kind it is biochemical. As to conditions: excess cyclosporine A (0.1 mg in 5 μl DMSO-d6) added after CypA. The procedure:
After acquisition of 1 D ^1H and 2D ^1H TOCSY, NOESY and ROESY NMR spectra of pure sVpr^1-20 and sVpr^21-40, 50-100 μl 0.11 mM CypA dissolved in aqueous Tris buffer at pH 7 was added to the individual peptide solutions, followed by acquisition of identical series of NMR spectra (1 D ^1H and 2D ^1H TOCSY, NOESY and ROESY) to those of the pure peptides. Exchange peaks occurring in the spectra after addition of CypA were identified by supposition of analogous NOESY and/or ROESY spectra prior to and after addition of CypA using Bruker Topspin 1.3 software.
The catalytic prolyl cis/trans isomerase interactions of CypA with sVpr^1-20 and sVpr^21-40 was inhibited by addition of excessive amounts of cyclosporine A dissolved in 5 μl deuterated dimethylsulfoxide (DMSO-d6).

No end group written: not given here.

T1 sequence (P62937 whole entry): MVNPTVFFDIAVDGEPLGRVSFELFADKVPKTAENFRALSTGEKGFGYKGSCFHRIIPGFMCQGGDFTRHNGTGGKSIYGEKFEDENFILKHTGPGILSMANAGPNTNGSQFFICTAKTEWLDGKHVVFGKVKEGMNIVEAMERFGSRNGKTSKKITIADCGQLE

As to RHFPRIW [sVpr^32-38], in series [1], the kon is 924 M⁻¹ s⁻¹ and the koff was determined as 0.67 s⁻¹.

For `CC[C@H](C)[C@H](NC(=O)[C@H](CCCNC(=N)N)NC(=O)[C@@H]1CCCN1C(=O)[C@H](Cc1ccccc1)NC(=O)[C@H](Cc1c[nH]cn1)NC(=O)[C@H](CCCNC(=N)N)NC(=O)[C@@H](NC(=O)[C@H](C)NC(=O)[C@H](CCC(=O)O)NC(=O)[C@H](CO)NC(=O)[C@H](CCCCN)NC(=O)[C@H](CC(C)C)NC(=O)[C@H](CCC(=O)O)NC(=O)[C@H](CCC(=O)O)NC(=O)[C@H](CC(C)C)NC(=O)[C@H](CC(C)C)NC(=O)[C@@H](N)CCC(=O)O)C(C)C)C(=O)N[C@@H](Cc1c[nH]c2ccccc12)C(=O)N[C@@H](CC(C)C)C(=O)N[C@@H](Cc1c[nH]cn1)C(=O)O` [sVpr^21-40], in series [1], the kon is 466 M⁻¹ s⁻¹ and the koff turned out to be 0.164 s⁻¹.

As to `CC[C@H](C)[C@H](NC(=O)[C@H](CCCNC(=N)N)NC(=O)[C@@H]1CCCN1C(=O)[C@H](Cc1ccccc1)NC(=O)[C@H](Cc1c[nH]cn1)NC(=O)[C@H](CCCNC(=N)N)NC(=O)[C@@H](NC(=O)[C@H](C)NC(=O)[C@H](CCC(=O)O)NC(=O)[C@H](CO)NC(=O)[C@H](CCCCN)NC(=O)[C@H](CC(C)C)NC(=O)[C@H](CCC(=O)O)NC(=O)[C@H](CCC(=O)O)NC(=O)[C@H](CC(C)C)NC(=O)[C@H](CC(C)C)NC(=O)[C@H](CCC(=O)O)NC(=O)[C@H](CC(C)C)NC(=O)[C@@H](NC(=O)[C@@H](NC(=O)[C@H](Cc1c[nH]c2ccccc12)NC(=O)[C@H](CCC(=O)O)NC(=O)[C@H](CC(N)=O)NC(=O)[C@H](Cc1ccc(O)cc1)NC(=O)[C@@H]1CCCN1C(=O)[C@H](CCC(=O)O)NC(=O)[C@H](CCCNC(=N)N)NC(=O)[C@H](CCC(N)=O)NC(=O)[C@@H]1CCCN1C(=O)CNC(=O)[C@H](CCC(N)=O)NC(=O)[C@H](CC(=O)O)NC(=O)[C@H](CCC(=O)O)NC(=O)[C@@H]1CCCN1C(=O)[C@H](C)NC(=O)[C@H](CCC(N)=O)NC(=O)[C@H](CCC(=O)O)NC(=O)[C@@H](N)CCSC)[C@@H](C)O)[C@@H](C)O)C(C)C)C(=O)N[C@@H](Cc1c[nH]c2ccccc12)C(=O)N[C@@H](CC(C)C)C(=O)N[C@@H](Cc1c[nH]cn1)C(=O)O` [sVpr^1-40], in series [1], the affinity, expressed as Kd, was 284 µM; the kon is 752 M⁻¹ s⁻¹; the koff stood at 0.37 s⁻¹. Moreover, the “Solubility in SPR running buffer” value in series [2] is listed as “restricted solubility”.

As to `CC[C@H](C)[C@H](NC(=O)[C@H](CCCNC(=N)N)NC(=O)[C@@H]1CCCN1C(=O)[C@H](Cc1ccccc1)NC(=O)[C@H](Cc1c[nH]cn1)NC(=O)[C@H](CCCNC(=N)N)NC(=O)[C@@H](NC(=O)[C@H](C)N)C(C)C)C(=O)N[C@@H](Cc1c[nH]c2ccccc12)C(=O)N[C@@H](CC(C)C)C(=O)N[C@@H](Cc1c[nH]cn1)C(=O)O` [sVpr^30-40], in series [1], the kon was 2470 M⁻¹ s⁻¹ and the koff is 0.527 s⁻¹.

As for HFPRI [sVpr^33-37], in series [1], the kon is 120 M⁻¹ s⁻¹ and the koff is 0.66 s⁻¹.

For `CC[C@H](C)[C@H](NC(=O)[C@H](CCCNC(=N)N)NC(=O)[C@@H]1CCCN1C(=O)[C@H](Cc1ccccc1)NC(=O)[C@H](Cc1c[nH]cn1)NC(=O)[C@H](CCCNC(=N)N)NC(=O)[C@@H](NC(=O)[C@H](C)NC(=O)[C@H](CCC(=O)O)NC(=O)[C@H](CO)NC(=O)[C@H](CCCCN)NC(=O)[C@H](CC(C)C)NC(=O)[C@@H](N)CCC(=O)O)C(C)C)C(=O)N[C@@H](Cc1c[nH]c2ccccc12)C(=O)N[C@@H](CC(C)C)C(=O)N[C@@H](Cc1c[nH]cn1)C(=O)O` [sVpr^25-40], in series [1], the kon was 2000 M⁻¹ s⁻¹ and the koff amounted to 0.942 s⁻¹.

Regarding cyclosporine A, in series [3], the “Inhibition of HIV replication” value was “inhibit HIV replication”. Moreover, the “Inhibition of CypA prolyl cis/trans isomerase activity (exchange crosspeaks after addition of inhibitor)” value is “disappearance of the prolyl cis/trans exchange crosspeaks” in series [4] (substrate sVpr1-20) and “prolyl cis/trans exchange crosspeaks disappeared” in series [4] (substrate sVpr21-40).

As to `CC[C@H](C)[C@H](NC(=O)[C@H](CCCNC(=N)N)NC(=O)[C@@H]1CCCN1C(=O)[C@H](Cc1ccccc1)NC(=O)[C@H](Cc1c[nH]cn1)NC(=O)[C@H](CCCNC(=N)N)NC(=O)[C@@H](NC(=O)[C@H](C)NC(=O)[C@H](CCC(=O)O)NC(=O)[C@H](CO)NC(=O)[C@H](CCCCN)NC(=O)[C@H](CC(C)C)NC(=O)[C@H](CCC(=O)O)NC(=O)[C@H](CCC(=O)O)NC(=O)[C@H](CC(C)C)NC(=O)[C@H](CC(C)C)NC(=O)[C@H](CCC(=O)O)NC(=O)[C@H](CC(C)C)NC(=O)[C@@H](NC(=O)[C@@H](NC(=O)[C@H](Cc1c[nH]c2ccccc12)NC(=O)[C@H](CCC(=O)O)NC(=O)[C@H](CC(N)=O)NC(=O)[C@H](Cc1ccc(O)cc1)NC(=O)[C@H](CC(N)=O)NC(=O)[C@H](CCC(=O)O)NC(=O)[C@H](CCCNC(=N)N)NC(=O)[C@H](CCC(N)=O)NC(=O)[C@H](CC(N)=O)NC(=O)CNC(=O)[C@H](CCC(N)=O)NC(=O)[C@H](CC(=O)O)NC(=O)[C@H](CCC(=O)O)NC(=O)[C@H](CC(N)=O)NC(=O)[C@H](C)NC(=O)[C@H](CCC(N)=O)NC(=O)[C@H](CCC(=O)O)NC(=O)[C@@H](N)CCSC)[C@@H](C)O)[C@@H](C)O)C(C)C)C(=O)N[C@@H](Cc1c[nH]c2ccccc12)C(=O)N[C@@H](CC(C)C)C(=O)N[C@@H](Cc1c[nH]cn1)C(=O)O` [sVpr^1-40 P5,10,14 N], in series [1], the kon amounted to 46 M⁻¹ s⁻¹ and the koff was 0.56 s⁻¹. For the same molecule, in series [2], the “Solubility in SPR running buffer” value is recorded as “restricted solubility”. Also, the “Solubility in aqueous buffer solution” value in series [2] (aqueous buffer solution at pH 7, offered as possible reason for unreliable KD) was “relatively poor solubility”.

These data come from publication PMC2959089, “The intriguing Cyclophilin A-HIV-1 Vpr interaction: prolyl cis/trans isomerisation catalysis and specific binding” (BMC Structural Biology, 2010).
